Results: EPA's ToxValDB 9.5 (doi:10.2903/j.efsa.2010.1779)
Converted amounts (≈) assume the structure as drawn.

Tests used:
Adalia sp. = assay: LR50; higher = less toxic; conditions: not reported; mortality
Typhlodromus pyri = assay: LR50; higher = less toxic; conditions: acute; duration: 14 days; mortality
Apis mellifera = conditions: acute; duration: 48 hours; oral; unspecified; mortality
Neomysis kadiakensis = conditions: acute; duration: 96 hours; mortality
Bibionidae = conditions: chronic/long-term
Tagia sp. = conditions: acute; duration: 14 days; mortality
Mus musculus = conditions: chronic; duration: 18 months; histopathology: neoplastic
Oryctolagus sp. = conditions: developmental; development

With `CCOC(=O)NCCOc1ccc(Oc2ccccc2)cc1` [Fenoxycarb] the LR50 (Adalia sp.) was over 2.5 g/ha, the LR50 (Typhlodromus pyri) was over 463 g/ha and the LC50 (Oncorhynchus mykiss; acute, duration: 96 hours, mortality) was 0.66 µg/mL (≈ 2.19 µM). It also gave an NOEC (Oncorhynchus mykiss; chronic/long-term, duration: 60 days, body weight) of 0.048 mg/L, an LD50 (Rattus norvegicus; acute, oral, mortality) of over 10000 mg/kg-day and an NOAEC (Rattus norvegicus; chronic) of 40 mg/kg-day. It also gave an NOAEL (Rattus norvegicus; subchronic, duration: 13 weeks, oral, organ weight) of 9.7 mg/kg-day, an LD50 (Apis mellifera) of over 204 µg/piece and an LC50 (Neomysis kadiakensis) of 0.35 µg/mL (≈ 1.16 µM). It also gave an NOEC (Bibionidae) of 0.0028 mg/kg, an NOEC (Bibionidae; duration: 28 days) of 0.00075 mg/L and an LC50 (Daphnia magna; acute, duration: 48 hours, mortality) of 0.5 µg/mL (≈ 1.66 µM). The NOEC (Daphnia magna; chronic/long-term, duration: 21 days, reproduction) was 1.6e-06 mg/L, the LD50 (Anas platyrhynchos; acute, oral, unspecified, mortality) was over 3000 mg/kg-day and the NOEC (Anas platyrhynchos; reproductive) was 17.7 mg/kg-day. It also gave an LC50 (Anas platyrhynchos; short-term, oral, feed, mortality) of over 5880 mg/kg-day, an LC50 (Tagia sp.) of over 850 mg/kg and an LC50 (Colinus virginianus; acute, oral, diet, mortality) of 1360 mg/kg-day. It also gave an LD50 (Colinus virginianus; acute, oral, mortality) of over 7000 mg/kg-day, an NOEC (Colinus virginianus; reproduction developmental) of 35.9 mg/kg-day and an LOAEL (Mus musculus) of 5.3 mg/kg-day. For the same compound, the NOAEL (Oryctolagus sp.) was 200 mg/kg-day.
